Assays:
[1] = system: 5×FAD (Aβ plaques) Alzheimer's models; experiment: Y-maze test; type: in vivo, mouse; details: 5×FAD mice, oral 8 weeks, all concentrations, compared to the dementia group; n=8~12, FIG. 6
Method: (§1) The experimental animals used herein were 24-week-old 5×FAD (Aβ plaques) Alzheimer's models. The experimental animals were raised at a temperature of 22±3° C., at a relative humidity of 30±10%, and at an illuminance of 150 to 300 Lux for a lighting period of 12 hours (08:00˜20:00), and five or less animals were raised in each polycarbonate cage.
The distilled water (DW)-administered group was used as a negative control (vehicle), and a donepezil-administered group was used as a positive control. The term “dementia group” refers to 5×FAD mice administered distilled water and the term “normal group” refers to wild-type mice administered distilled water. […]
Specifically, the arms of the Y-maze were randomly designated as A, B, and C, the mouse was placed on one arm and allowed to move freely for 5 minutes, and then the arm where the mouse entered was recorded. This record was limited to cases where the tail thereof completely entered, and cases where it entered the same arm again were also recorded (FIG. 5). […]
The case where the mouse entered three different arms one after another was given one point (actual alteration). Alteration behavior is defined as a case where the mouse enters all of three arms in turn and the result was calculated in accordance with Equation 1 below (maximum change: total number of entries—2).

[2] = system: amyloid beta accumulated in mouse brain tissue; experiment: Amyloid beta accumulation analysis (thioflavin staining of cleared brain tissue); type: in vivo; details: for Ab number / Ab number/volume: oral, 5×FAD mice
Method: as §1
The term “dementia group” refers to 5×FAD mice administered distilled water, and the term “normal group” refers to wild-type mice administered distilled water.
For the amyloid beta accumulated in mouse brain tissue, brain tissue over 1 mm in size was made transparent using a tissue transparency technique, stained with thioflavin, imaged in three dimensions, and then quantified as plaques for each brain region using the Imaris program.
In addition, three 1 mm-thick brain tissues were collected from each group, the volumes thereof were measured, and the total number of accumulated amyloid beta was measured.

[3] = system: phosphorylated tau protein; experiment: Tau protein hyperphosphorylation analysis (IHC); type: in vivo, mouse
Method: The experimental animals used herein were 24-week-old 5×FAD (Aβ plaques) Alzheimer's models. The experimental animals were raised at a temperature of 22±3° C., at a relative humidity of 30±10%, and at an illuminance of 150 to 300 Lux for a lighting period of 12 hours (08:00˜20:00), and five or less animals were raised in each polycarbonate cage. The distilled water (DW)-administered group was used as a negative control (vehicle), and a donepezil-administered group was used as a positive control. The term “dementia group” refers to 5×FAD mice administered distilled water, and the term “normal group” refers to wild-type mice administered distilled water. Hyperphosphorylation (p-tau) of tau protein was analyzed through image observation based on immunohistochemistry (IHC) using an antibody that detects tau protein expressed in mouse brain tissue and phosphorylated tau protein.

wild-type mice = experiment: Water maze test, normal group; type: in vivo, mouse; details: oral 8 weeks, compared to distilled water (vehicle), FIGS. 2 and 3
Method: The distilled water (DW)-administered group was used as a negative control (vehicle), and a donepezil-administered group was used as a positive control. The term “dementia group” refers to 5×FAD mice administered distilled water and the term “normal group” refers to wild-type mice administered distilled water. 2′-FL was orally administered at various concentrations to wild-type and 5×FAD mouse groups for 8 weeks and then a water maze test was performed. Specifically, a circular water tank with a diameter of 150 cm and a height of 60 cm was filled to a height of 30 cm with water, and an escape platform was installed in one area of the four quadrants of the tank. During the training period, the escape platform was placed 1 cm below the surface of the water in the tank so that it was invisible, training was repeated at the identical water entry point three times a day, and recording was performed using a video tracking system (SMART v3.0 panlab SL). When the experimental animal reached the escape platform within 60 seconds, it was allowed to stay on the escape platform for 15 seconds, and when it could not find the escape platform, it was guided to the escape platform by hand and trained to stay on the escape platform alone for 20 seconds. […] At this time, the time (sec) to first reach the location of the escape platform and the number of target crossings were recorded (FIG. 1). […]

TNF-α = experiment: Neuroinflammatory marker analysis (ELISA), TNF-α; type: in vivo, mouse; details: 2′-FL-administered dementia group compared to the dementia group; FIG. 12
Method: (§2) The experimental animals used herein were 24-week-old 5×FAD (Aβ plaques) Alzheimer's models. The experimental animals were raised at a temperature of 22±3° C., at a relative humidity of 30±10%, and at an illuminance of 150 to 300 Lux for a lighting period of 12 hours (08:00˜20:00), and five or less animals were raised in each polycarbonate cage. The distilled water (DW)-administered group was used as a negative control (vehicle), and a donepezil-administered group was used as a positive control. The term “dementia group” refers to 5×FAD mice administered distilled water, and the term “normal group” refers to wild-type mice administered distilled water. The concentrations of neuroinflammatory cytokines, TNF-α and IL-6 in mouse brain tissue homogenates were analyzed using enzyme-linked immunosorbent assay (ELISA).

[4] = system: 5×FAD (Aβ plaques) Alzheimer's models; experiment: Water maze test, dementia group; type: in vivo, mouse
Method: The experimental animals used herein were 24-week-old 5×FAD (Aβ plaques) Alzheimer's models. The experimental animals were raised at a temperature of 22±3° C., at a relative humidity of 30±10%, and at an illuminance of 150 to 300 Lux for a lighting period of 12 hours (08:00˜20:00), and five or less animals were raised in each polycarbonate cage. The distilled water (DW)-administered group was used as a negative control (vehicle), and a donepezil-administered group was used as a positive control. The term “dementia group” refers to 5×FAD mice administered distilled water and the term “normal group” refers to wild-type mice administered distilled water. 2′-FL was orally administered at various concentrations to wild-type and 5×FAD mouse groups for 8 weeks and then a water maze test was performed. Specifically, a circular water tank with a diameter of 150 cm and a height of 60 cm was filled to a height of 30 cm with water, and an escape platform was installed in one area of the four quadrants of the tank. During the training period, the escape platform was placed 1 cm below the surface of the water in the tank so that it was invisible, training was repeated at the identical water entry point three times a day, and recording was performed using a video tracking system (SMART v3.0 panlab SL). When the experimental animal reached the escape platform within 60 seconds, it was allowed to stay on the escape platform for 15 seconds, and when it could not find the escape platform, it was guided to the escape platform by hand and trained to stay on the escape platform alone for 20 seconds. In the probe test on the 6th day, the escape platform was removed and the experimental animals were allowed to swim freely for 60 seconds. At this time, the time (sec) to first reach the location of the escape platform and the number of target crossings were recorded (FIG. 1). FIG. 1 is a schematic diagram illustrating the water maze test method.

IL-6 = experiment: Neuroinflammatory marker analysis (ELISA), IL-6; type: in vivo, mouse; details: 2′-FL-administered dementia group compared to the dementia group; FIG. 13
Method: as §2

[5] = 2′-FL 300 group, 1st brain tissue
[6] = 2′-FL 300 group, 2nd brain tissue
[7] = 2′-FL 300 group, 3rd brain tissue
[8] = 2′-FL 600 group, 1st brain tissue
[9] = 2′-FL 600 group, 2nd brain tissue
[10] = 2′-FL 600 group, 3rd brain tissue
[11] = 2′-FL 1200 group, 1st brain tissue
[12] = 2′-FL 1200 group, 2nd brain tissue
[13] = 2′-FL 1200 group, 3rd brain tissue

2′-fucosyllactose [2′-FL]
spontaneous alteration (SA) [1]: significantly increased SA | Ab number [2, 5]: 23900 | Ab number/volume [2, 5]: 8628 | Ab number [2, 6]: 26900 | Ab number/volume [2, 6]: 9642 | Ab number [2, 7]: 42000 | Ab number/volume [2, 7]: 12174 | Ab number ([2]; 2′-FL 300 group, Avr. of three brain tissues): 30933 | Ab number/volume ([2]; 2′-FL 300 group, Avr. of three brain tissues, *p ≤ 0.05 vs. Vehicle): 10148* | Ab number [2, 8]: 32000 | Ab number/volume [2, 8]: 11722 | Ab number [2, 9]: 38400 | Ab number/volume [2, 9]: 11852 | Ab number [2, 10]: 20800 | Ab number/volume [2, 10]: 5762 | Ab number ([2]; 2′-FL 600 group, Avr. of three brain tissues): 30400 | Ab number/volume ([2]; 2′-FL 600 group, Avr. of three brain tissues, *p ≤ 0.05 vs. Vehicle): 9778* | Ab number [2, 11]: 34300 | Ab number/volume [2, 11]: 10719 | Ab number [2, 12]: 31900 | Ab number/volume [2, 12]: 7800 | Ab number [2, 13]: 37000 | Ab number/volume [2, 13]: 12092 | Ab number ([2]; 2′-FL 1200 group, Avr. of three brain tissues): 34400 | Ab number/volume ([2]; 2′-FL 1200 group, Avr. of three brain tissues, *p ≤ 0.05 vs. Vehicle): 10203* | amyloid beta accumulation ([2]; brain cortex of dementia group, n=8-12, FIG. 7): decrease in amyloid beta accumulation | amyloid beta accumulation ([2]; brain hippocampus of dementia group, n=8-12, FIG. 8): decrease in amyloid beta accumulation | accumulation of amyloid beta throughout the brain ([2]; dementia group, three 1 mm-thick brain tissues per group, Table 1, FIG. 9): significantly inhibited | inhibition of tau protein hyperphosphorylation ([3]; brain cortex of dementia group, n=8~12, FIG. 10): no significant effect | inhibition of tau protein hyperphosphorylation ([3]; brain hippocampus of dementia group, n=8~12, FIG. 11): no significant effect | time to arrive at the escape platform during the water maze training period (wild-type mice): reduced the time to arrive at the escape platform | concentration of TNF-α (TNF-α): significantly decreased | arrival route to the escape platform ([4]; 5th day of water maze training, 2′-FL-administered dementia group compared to the dementia group, FIG. 4): simplified | spatial memory through training ([4]; all concentrations, 2′-FL-administered dementia group compared to the dementia group): significantly improved spatial memory | time to arrive at the escape platform during the water maze training period ([4]; dementia group (5×FAD mice), oral 8 weeks, compared to distilled water (vehicle), FIGS. 2 and 3): reduced the time to arrive at the escape platform | concentration of IL-6 (IL-6): significantly decreased
